Assay results as given in patent US5446060A, “Aminoalkyl thienyl ketone derivatives and their use as peripheral vasodilators” (Laboratoire L. Lafon, priority 1990, dated 1995).
Where a name gives a salt, the structure may show the parent alone. Read-outs that look alike come from different tables or passages of the source.

Tests used:
femoral flow rate = test: Cardiovascular activity, compounds administered intravenously in anaesthetised dogs (femoral flow rate); assay type: in vivo; conditions: intravenous; for increase in femoral flow rate: 4 mg/kg; for minimal effective dose: Canis lupus familiaris, read-out: dose at and above which femoral flow rate is significantly increased
From the text: (§1) The activity of the compounds administered intravenously was studied in anaesthetised dogs.

Solubility in water = assay type: physicochemical; conditions: for solubility: read-out: solubility in water (concentration)
ATP in fresh blood = test: Effects on ATP in fresh blood measured ex vivo by 31P NMR spectroscopy
Protocol: The effects of the compounds on the ATP in fresh blood were measured ex vivo by ^31 p NMR spectroscopy.
The results are given in the table below in the form of percentage changes.

arterial blood pressure = test: Cardiovascular activity, compounds administered intravenously in anaesthetised dogs (arterial blood pressure); assay type: in vivo; conditions: intravenous
From the text: as §1

[1] = test system: microcirculation of the chamber of the rabbit's ear; test: Activity with respect to the microcirculation of the chamber of the rabbit's ear; assay type: in vivo; conditions: 1 mg/kg I.V.
From the text: The activity of the compounds administered intravenously with respect to the microcirculation of the chamber of the rabbit's ear was studied.

[2] = Acute toxicity determined orally in mice; conditions: mouse, in vivo; oral, mice (NMRI)
Protocol: The acute toxicity was determined orally in mice (NMRI).

## O=C(CCCN1CCCC1)c1cccs1 [Example 1, 4-pyrrolidino-l-(2-thienyl)butanone hydrochloride]
Femoral flow rate
  increase in femoral flow rate: 170%
  minimal effective dose: ≥ 1 mg/kg
Solubility in water
  solubility: 200 mg/mL
ATP in fresh blood
  percentage change in αATP: +41.4%
  percentage change in βATP: +31.2%
  percentage change in γATP: +36.7%
Arterial blood pressure; even at 4 mg/kg
  change in arterial blood pressure: no significant change
[1]
  increase in non-terminal arteriolar diameter: significant and long-lasting increase
[2]
  LD50: 121 ± 10 mg/kg

## O=C(CCCN1CCCCC1)c1cccs1 [Example 2, 4-piperidino-l-(2-thienyl)butanone hydrochloride]
Femoral flow rate; 2 mg/kg
  increase in femoral flow rate compared with buflomedil at 4 mg/kg: same intensity as buflomedil at a dose of 4 mg/kg
Femoral flow rate
  minimal effective dose: ≥ 1 mg/kg
  duration of effect on femoral flow rate compared with buflomedil: longer-lasting than that of buflomedil
Solubility in water; hydrochloride
  solubility in water (in words): water-soluble
Arterial blood pressure; 2 mg/kg
  change in arterial blood pressure: without modifying arterial blood pressure
[2]
  LD50: 235 ± 35 mg/kg

## CC1CCCN(CCCC(=O)c2cccs2)C1 (stereo not drawn) [Example 3, 4-(3-methylpiperidino)-1-(2-thienyl)butanone hydrochloride]
Solubility in water
  solubility: 200 mg/mL
ATP in fresh blood
  percentage change in αATP: +54.2%
  percentage change in βATP: +54.6%
  percentage change in γATP: +34.7%
[2]
  LD50: 207 ± 29 mg/kg

## O=C(CCCN1CCOCC1)c1cccs1 [Example 4, 4-morpholino-l-(2-thienyl)butanone hydrochloride]
Solubility in water
  solubility in water (in words): water-soluble

## O=C(CCCN1CCCC(CO)C1)c1cccs1 (stereo not drawn) [Example 5, 4-[3-(hydroxymethyl)piperidino]-1-(2-thienyl) butanone hydrochloride]
Solubility in water
  solubility in water (in words): water-soluble

## O=C(CCCn1ccnc1)c1cccs1 [Example 6, 4-(1-imidazolyl)-1-(2-thienyl)butanone hydrochloride]
Solubility in water
  solubility in water (in words): water-soluble

## O=C(CCCN1CCCCCC1)c1cccs1 [Example 7, 4-hexamethylenimino-1-(2-thienyl)butanone hydrochloride]
Femoral flow rate; 1.14 mg/kg and above
  increase in femoral flow rate (in words): significant and longlasting increase
Femoral flow rate
  minimal effective dose: ≥ 1.14 mg/kg
Femoral flow rate; dose of 1.14 mg/kg and above
  increase in femoral flow rate compared with buflomedil at 4 mg/kg: larger than that observed with buflomedil at a dose of 4 mg/kg
Solubility in water
  solubility in water (in words): watersoluble
[1]
  increase in non-terminal arteriolar diameter: significant and long-lasting increase
[2]
  LD50: 131 ± 15 mg/kg

## O=C(CCCN1CCCC1)c1ccsc1 [Example 8, 4-pyrrolidino-1-(3-thienyl)butanone hydrochloride]
Solubility in water
  solubility in water (in words): water-soluble

## O=C(CCCN1CCCCCC1)c1ccsc1 [Example 9, 4-hexamethylenimino-1-(3-thienyl)butanone hydrochloride]
Solubility in water
  solubility in water (in words): water-soluble

## CC1CCCN(CCCC(=O)c2ccsc2)C1 (stereo not drawn) [Example 10, 4-(3-methylpiperidino)-1-(3thienyl)butanone hydrochloride]
Solubility in water
  solubility in water (in words): water-soluble

## O=C(CCCN1CCCC1)c1cccs1 [Example 11, 4-pyrrolidino-1-(2-thienyl)butanone 2,4,6-trimethoxybenzoate]
Solubility in water
  solubility in water (in words): soluble in water on heating

## O=C(CCCN1CCCCC1)c1cccs1 [Example 12, 4-piperidino-1-(2-thienyl)butanone 2,4,6-trimethoxybenzoate]
Solubility in water
  solubility in water (in words): soluble in water on heating

## COc1cc(OC)c(C(=O)CCCN2CCCC2)c(OC)c1 [buflomedil, reference compound]
Femoral flow rate
  increase in femoral flow rate: 106%
ATP in fresh blood
  change in ATP level: did not reveal any change in ATP level
